Where a name gives a salt, the structure may show the parent alone.
Assays:
5-HT4 receptor [1] = molecular target: T1, 5-HT4 receptor (Rattus norvegicus, UniProt Q62758); assay: Agonisting action to 5-HT4 receptor: relaxation of carbachol-contracted muscular sample of mucous membrane of rat esophagus (Baxter et al.); format: cell-based; conditions: carbachol contraction, read-out: P EC50 (negative logarithm of concentration causing 50% relaxation) (converted)
T1 construct: a muscular sample of mucous membrane in esophgus exentrated from a rat; from tissue; host or cells: rat oesophagus, muscularis mucosae (isolated)
T1 sequence (Q62758 whole entry): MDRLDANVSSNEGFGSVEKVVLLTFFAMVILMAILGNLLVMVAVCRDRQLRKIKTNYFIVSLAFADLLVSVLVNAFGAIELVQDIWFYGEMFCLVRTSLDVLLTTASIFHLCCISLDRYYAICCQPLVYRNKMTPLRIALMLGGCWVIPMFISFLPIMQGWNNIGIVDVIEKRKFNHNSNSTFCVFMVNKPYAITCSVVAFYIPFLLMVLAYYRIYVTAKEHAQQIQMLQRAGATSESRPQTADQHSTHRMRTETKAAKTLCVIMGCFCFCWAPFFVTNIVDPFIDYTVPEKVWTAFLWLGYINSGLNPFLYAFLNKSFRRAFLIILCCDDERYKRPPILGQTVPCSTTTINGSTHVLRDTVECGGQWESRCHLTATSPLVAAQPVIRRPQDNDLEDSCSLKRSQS
Description: (Agonisting action to 5-HT4 receptor)
Pharmacol.", Vol. 343, page 439 (1991)!.
Namely, a relaxation of the Test and Control compounds in various concentration showing to carbachol contradiction of a muscular sample of mucous membrane in esophgus exentrated from a rat was checked to calculate a concentration causing 50% relaxation and compared with its negative logarithm (P EC50).

dopamine D2 receptor = conditions: rat, in vivo, po, 100 mg/kg
Description: The compounds obtained by Examples as well as known compound (Metoclopramide) were selected as Test and Control Compounds, respectively. The compound was orally administered to rats to observe for 2 days general symptoms including catalepsy and blepharoptosis due to antagonistic action of the compound to dopamine D2 receptor.

5-HT4 receptor [2] = conditions: known compound, as said in the art; cited from earlier work

Structure (SMILES)	EC50 (5-HT4 receptor [1])	further results
Nc1c(Cl)cc(C(=O)NCCC23CCCN2CCC3)c2c1CCCO2 [Example 1, 5-Amino-N-2-(1-azabicyclo 3.3.0!octan-5-yl)ethyl!-6-chloro-3,4-dihydro-2H-1-benzopyran-8-carboxamide·1/2 fumarate]	0.00501 µM	
COc1cc2c(c(C(=O)NCCC34CCCN3CCC4)c1)OCCC2 [Example 7, N-2-(1-Azabicyclo 3.3.0!octan-5-yl)ethyl!-3,4-dihydro-6-methoxy-2H-1-benzopyran-8-carboxamide·1/2 fumarate]	25.1 µM	
O=C(NCCC12CCCN1CCC2)c1ccc(Cl)c2c1OCCC2 [Example 5, N-2-(1-Azabicyclo 3.3.0!octan-5-yl)ethyl!-3,4-dihydro-5-chloro-2H-1-benzopyran-8-carboxamide· fumarate]	25.1 µM	
O=C(NCCC12CCCN1CCC2)c1cccc2c1OCCC2 [Example 4, N-2-(1-Azabicyclo 3.3.0!octan-5-yl)ethyl!-3,4-dihydro-2H-1-benzopyran-8-carboxamide·1/2 fumarate]	12.6 µM	
CC(=O)Nc1c(Cl)cc(C(=O)NCCC23CCCN2CCC3)c2c1CCCO2 [Example 10, 5-Acetylamino-N-2-(1-azabicyclo 3.3.0!octan-5-yl)ethyl!-6-chloro-3,4-dihydro-2H-1-benzopyran-8-carboxamide· fumarate]	7.94 µM	
CC1CCc2c(N)c(Cl)cc(C(=O)NCCC34CCCN3CCC4)c2O1 (stereo not drawn) [Example 2, 5-Amino-N-2-(1-azabicyclo 3.3.0!octan-5-yl)ethyl!-6-chloro-3,4-dihydro-2-methyl-2H-1-benzopyran-8-carboxamide·1/2 fumarate]	0.02 µM	
Nc1c(Cl)cc(C(=O)NCCC23CCCN2CCC3)c2c1C=CCO2 [Example 3, 5-Amino-N-2-(1-azabicyclo 3.3.0!octan-5-yl)ethyl!-6-chloro-2H-1-benzopyran-8-carboxamide·1/2 fumarate]	0.0251 µM	
Cc1ccc(C(=O)NCCC23CCCN2CCC3)c2c1CCCO2 [Example 8, N-2-(1-Azabicyclo 3.3.0!octan-5-yl)ethyl!-3,4-dihydro-5-methyl-2H-1-benzopyran-8-carboxamide·1/2 fumarate]	20 µM	
CCN(CC)CCNC(=O)c1cc(Cl)c(N)cc1OC [Metoclopramide, 4-amino-5-chloro-N-(2-diethylamino)ethyl!-2-methoxybenzamide]		influence to central nerve system due to anti-dopamine action (dopamine D2 receptor): somewhat remarkable influence was recognized
COc1cc(N)c(Cl)cc1C(=O)NC1CCN(CCCOc2ccc(F)cc2)CC1OC (stereo not drawn) [Cisapride]		agonisting action to 5-HT4 receptor (5-HT4 receptor [2]): strong agonisting action to 5-HT4 receptor
Cc1cc2c(c(C(=O)NCCC34CCCN3CCC4)c1)OCCC2 [Example 9, N-2-(1-Azabicyclo 3.3.0!octan-5-yl)ethyl!-3,4-dihydro-6-methyl-2H-1-benzopyran-8-carboxamide·1/2 fumarate]	15.8 µM	
O=C(NCCC12CCCN1CCC2)c1cc(Cl)cc2c1OCCC2 [Example 6, N-2-(1-Azabicyclo 3.3.0!octan-5-yl)ethyl!-3,4-dihydro-6-chloro-2H-1-benzopyran-8-carboxamide·1/2 fumarate]	12.6 µM	
